Experimental data reported in US11554171B2, “Compounds and methods for the targeted degradation of bromodomain-containing proteins” (Arvinas Operations, Inc., priority 2015, dated 2023).

Test system: c-myc in 22RV-1 cells
Assay: Human c-myc ELISA assay
Format: cell-based
Conditions: Homo sapiens; for Emax: 22Rv1, 18 h, read-out: Degradation of BRD4: Maximum inhibition (%) c-Myc ELISA in 22RV1 cells; for DC50: 22Rv1, read-out: Degradation of BRD4: DC50 (uM) c-Myc ELISA in 22RV1 cells
Procedure: 22RV-1 cells are seeded at 30,000 cells/well at a volume of 75 μL/well in RPMI+10% FBS media in 96-well plates and grown overnight at 37 C. Cells are dosed with compounds at 4× concentration diluted in 0.4% DMSO; compounds are serially diluted 1:3 for 8-point dose curve. 25 ul of compounds is added to cells for a final concentration starting at 300 nM-0.3 nM or 1 uM-1 nM in 0.1% DMSO and incubated for 18 hrs. Media is aspirated, cells washed 1× with PBS and aspirated. Cells are lysed in 50 ul RIPA buffer (50 mM Tris pH8, 150 mM NaCl, 1% Tx-100, 0.1% SDS, 0.5% sodium deoxycholate) supplemented with protease and phosphatase inhibitors. Plates are incubated on ice for 15 minutes then centrifuged at 4 C for 10 min at 4000 rpm. Add 50 ul of cleared lysate from 96-well assay plate into 96-well c-myc ELISA plate (Novex, Life Technologies Catalog #KH02041). Reconstitute c-myc standard with standard diluent buffer; standard curve range is 333 pg/ml-0 pg/ml, diluted 1:2 for 8-point dose curve. The rest of the assay was performed following the protocol from the c-myc ELISA kit. Data is analyzed and plotted using GraphPad Prism software. Compounds described in this application were assayed and c-myc suppression potency is listed in the following Table (A: DC50<10 nM; B: DC50 10-100 nM; C: DC50: 100-1000 nM; D: DC50>1000 nM)

Structure (SMILES) | Emax [%] | DC50 [µM]
Cc1ncsc1-c1ccc([C@H](C)NC(=O)[C@@H]2C[C@@H](O)CN2C(=O)[C@@H](C(C)C)n2cc(-c3cc(O[C@H]4C[C@H](NC(=O)C[C@@H]5N=C(c6ccc(Cl)cc6)c6c(sc(C)c6C)-n6c(C)nnc65)C4)ccn3)cn2)cc1 [Example 305] | 6.7 | > 1
Cc1ncsc1-c1ccc([C@@H](CO)NC(=O)[C@@H]2C[C@@H](O)CN2C(=O)[C@@H](NC(=O)CN2CCC(O[C@H]3C[C@H](NC(=O)C[C@@H]4N=C(c5ccc(Cl)cc5)c5c(sc(C)c5C)-n5c(C)nnc54)C3)CC2)C(C)(C)C)cc1 [Example 352, (2S,4R)-1-[(2S)-3,3-dimethyl-2-(2-{4-[(1,3-trans)-3-{2-[(9S)-7-(4-chlorophenyl)-4,5,13-trimethyl-3-thia-1,8,11,12-tetraazatricyclo[8.3.0.0^2,^6]trideca-2(6),4,7,10,12-pentaen-9-yl]acetamido}cyclobutoxy]piperidin-1-yl}acetamido)butanoyl]-4-hydroxy-N-[(1S)-2-hydroxy-1-[4-(4-methyl-1,3-thiazol-5-yl)phenyl]ethyl]pyrrolidine-2-carboxamide] | < 20 | > 1
Cc1ncsc1-c1ccc([C@H](C)NC(=O)[C@@H]2C[C@@H](O)CN2C(=O)[C@@H](NC(=O)/C=C/c2cc(O[C@H](C)CNC(=O)C[C@@H]3N=C(c4ccc(Cl)cc4)c4c(sc(C)c4C)-n4c(C)nnc43)ccc2F)C(C)(C)C)cc1 [Example 197] | 91.5 | < 0.01
Cc1ncsc1-c1ccc([C@H](C)NC(=O)[C@@H]2C[C@@H](O)CN2C(=O)[C@@H](NC(=O)CCc2ccnc(O[C@H]3C[C@H](NC(=O)C[C@@H]4N=C(c5ccc(Cl)cc5)c5c(sc(C)c5C)-n5c(C)nnc54)C3)c2)C(C)(C)C)cc1 [Example 192] | 93 | < 0.01
Cc1ncsc1-c1ccc([C@H](C)NC(=O)[C@@H]2C[C@@H](O)CN2C(=O)[C@@H](NC(=O)COc2nccc(N3CCN(C(=O)C[C@@H]4N=C(c5ccc(Cl)cc5)c5c(sc(C)c5C)-n5c(C)nnc54)CC3)n2)C(C)(C)C)cc1 [Example 331] | 81.5 | 0.1 to 1
CC(=O)N[C@H](C(=O)N1C[C@H](O)C[C@H]1C(=O)NCc1ccc(-c2scnc2C)cc1OCCOCCCOc1ccc(C2=N[C@@H](CC(=O)Nc3ccccc3)c3nnc(C)n3-c3sc(C)c(C)c32)cc1)C(C)(C)C [Example 181, (2S,4R)-1-[(2S)-2-acetamido-3,3-dimethylbutanoyl]-4-hydroxy-N-{[4-(4-methyl-1,3-thiazol-5-yl)-2-[2-(3-{4-[(9S)-4,5,13-trimethyl-9-[(phenylcarbamoyl)methyl]-3-thia-1,8,11,12-tetraazatricyclo[8.3.0.0^2,^6]trideca-2(6),4,7,10,12-pentaen-7-yl]phenoxy}propoxy)ethoxy]phenyl]methyl}pyrrolidine-2-carboxamide] | 80.5 | 0.1 to 1
Cc1ncsc1-c1ccc(CNC(=O)[C@@H]2C[C@@H](O)CN2C(=O)[C@@H](NC(=O)COCCCOCCNC(=O)C[C@@H]2N=C(c3ccc(Cl)cc3)c3c(sc(C)c3C)-n3c(C)nnc32)C(C)(C)C)cc1 [Example 49, (2S,4R)-1-[(2S)-2-{2-[3-(2-{2-[(9S)-7-(4-chlorophenyl)-4,5,13-trimethyl-3-thia-1,8,11,12-tetraazatricyclo[8.3.0.0^2,^6]trdeca-2(6),4,7,10,12-pentaen-9-yl]acetamido}ethoxy)propoxy]acetamido}-3,3-dimethylbutanoyl]-4-hydroxy-N-{[4-(4-methyl-1,3-thiazol-5-yl)phenyl]methyl}pyrrolidine-2-carboxamide] | 99 | < 0.01
Cc1ncsc1-c1ccc([C@H](C)NC(=O)[C@@H]2C[C@@H](O)CN2C(=O)[C@@H](NC(=O)/C=C/c2cccc(O[C@@H](C)CNC(=O)C[C@@H]3N=C(c4ccc(Cl)cc4)c4c(sc(C)c4C)-n4c(C)nnc43)c2)C(C)(C)C)cc1 [Example 158] | 96.5 | < 0.01
Cc1noc(-c2ccc([C@H](C)NC(=O)[C@@H]3C[C@@H](O)CN3C(=O)[C@@H](NC(=O)COc3ccc(O[C@H]4C[C@@H](NC(=O)C[C@@H]5N=C(c6ccc(Cl)cc6)c6c(sc(C)c6C)-n6c(C)nnc65)C4)nc3)C(C)(C)C)cc2)n1 [Example 271] | 96.4 | < 0.01
Cc1ncsc1-c1ccc([C@H](C)NC(=O)[C@@H]2C[C@@H](O)CN2C(=O)[C@@H](NC(=O)COCCOCCCOc2ccc([C@@H](C)NC(=O)C[C@@H]3N=C(c4ccc(Cl)cc4)c4c(sc(C)c4C)-n4c(C)nnc43)cc2)C(C)(C)C)cc1 [Example 30] | 96 | 0.01 to 0.1
Cc1ncsc1-c1ccc([C@H](C)NC(=O)[C@@H]2C[C@@H](O)CN2C(=O)[C@@H](NC(=O)COC[C@H](O)CN2CCN(C(=O)C[C@@H]3N=C(c4ccc(Cl)cc4)c4c(sc(C)c4C)-n4c(C)nnc43)CC2)C(C)(C)C)cc1 [Example 328] | 61 | 0.1 to 1
Cc1ncsc1-c1ccc([C@H](C)NC(=O)[C@@H]2C[C@@H](O)CN2C(=O)[C@@H](NC(=O)c2cc3cc(O[C@H]4C[C@@H](NC(=O)C[C@@H]5N=C(c6ccc(Cl)cc6)c6c(sc(C)c6C)-n6c(C)nnc65)C4)ccc3o2)C(C)C)cc1 [Example 336] | 98 | < 0.01
Cc1ncsc1-c1ccc([C@H](C)NC(=O)[C@@H]2C[C@@H](O)CN2C(=O)[C@@H](C(C)C)n2cc(-c3ccc(N4CC(NC(=O)C[C@@H]5N=C(c6ccc(Cl)cc6)c6c(sc(C)c6C)-n6c(C)nnc65)C4)nc3)cn2)cc1 [Example 255] | 35.5 | > 1
CC(=O)N[C@H](C(=O)N1C[C@H](O)C[C@H]1C(=O)NCc1ccc(-c2scnc2C)cc1OCCCOc1ccc(C2=N[C@@H](CC(=O)Nc3ccccc3)c3nnc(C)n3-c3sc(C)c(C)c32)cc1)C(C)(C)C [Example 155] | 65.5 | 0.1 to 1
Cc1ncsc1-c1ccc([C@H](C)NC(=O)[C@@H]2C[C@@H](O)CN2C(=O)[C@H](C(C)C)n2cc(-c3cc(F)cc(O[C@H]4C[C@@H](NC(=O)C[C@@H]5N=C(c6ccc(Cl)cc6)c6c(sc(C)c6C)-n6c(C)nnc65)C4)c3)cn2)cc1 [Example 252] | 97.5 | < 0.01
Cc1ncsc1-c1ccc([C@H](C)NC(=O)[C@@H]2C[C@@H](O)CN2C(=O)[C@H](C(C)C)n2cc(-c3cnc(O[C@H]4C[C@H](NC(=O)C[C@@H]5N=C(c6ccc(Cl)cc6)c6c(sc(C)c6C)-n6c(C)nnc65)C4)cn3)cn2)cc1 [Example 284] | 93.4 | < 0.01
Cc1ncsc1-c1ccc([C@H](C)NC(=O)[C@@H]2C[C@@H](O)CN2C(=O)[C@@H](NC(=O)CCc2cccc(OCCNC(=O)C[C@@H]3N=C(c4ccc(Cl)cc4)c4c(sc(C)c4C)-n4c(C)nnc43)c2)C(C)(C)C)cc1 [Example 85] | 100 | < 0.01
Cc1ncsc1-c1ccc([C@H](C)NC(=O)[C@@H]2C[C@@H](O)CN2C(=O)[C@@H](NC(=O)Cc2ccc(O[C@H]3C[C@H](NC(=O)C[C@@H]4N=C(c5ccc(Cl)cc5)c5c(sc(C)c5C)-n5c(C)nnc54)C3)cc2)C(C)C)cc1 [Example 280] | 95.4 | 0.01 to 0.1
Cc1ncsc1-c1ccc([C@H](C)NC(=O)[C@@H]2C[C@@H](O)CN2C(=O)[C@H](C(C)C)n2cc(-c3cc(O[C@H]4C[C@H](NC(=O)C[C@@H]5N=C(c6ccc(Cl)cc6)c6c(sc(C)c6C)-n6c(C)nnc65)C4)ccn3)cn2)cc1 [Example 304] | 95 | 0.01 to 0.1
Cc1ncsc1-c1ccc(CNC(=O)[C@@H]2C[C@@H](O)CN2C(=O)[C@H](C(C)C)N2Cc3ccccc3C2=O)c(OCCOCCOCCOCCOCCOCCNC(=O)C[C@@H]2N=C(c3ccc(Cl)cc3)c3c(sc(C)c3C)-n3c(C)nnc32)c1 [Example 3] | 100 | 0.1 to 1
Cc1ncsc1-c1ccc([C@H](C)NC(=O)[C@@H]2C[C@@H](O)CN2C(=O)[C@H](C(C)C)n2cc(-c3ccnc(N4CC[C@@H](NC(=O)C[C@@H]5N=C(c6ccc(Cl)cc6)c6c(sc(C)c6C)-n6c(C)nnc65)C4)c3)cn2)cc1 [Example 266] | 97 | < 0.01
Cc1ncsc1-c1ccc([C@H](C)NC(=O)[C@@H]2C[C@@H](O)CN2C(=O)[C@@H](NC(=O)COc2ccnc(O[C@H]3C[C@H](NC(=O)C[C@@H]4N=C(c5ccc(Cl)cc5)c5c(sc(C)c5C)-n5c(C)nnc54)C3)c2)C(C)(C)C)cc1 [Example 227] | 100 | < 0.01
Cc1ncsc1-c1ccc([C@H](C)NC(=O)[C@@H]2C[C@@H](O)CN2C(=O)[C@H](C(C)C)n2cc(-c3cc(O[C@H]4C[C@@H](NC(=O)C[C@@H]5N=C(c6ccc(Cl)cc6)c6c(sc(C)c6C)-n6c(C)nnc65)C4)ccn3)cn2)cc1 [Example 302] | 92 | 0.01 to 0.1
Cc1ncsc1-c1ccc([C@H](C)NC(=O)[C@@H]2C[C@@H](OC(=O)CCCN)CN2C(=O)[C@@H](NC(=O)c2cc3cc(O[C@H]4C[C@@H](NC(=O)C[C@@H]5N=C(c6ccc(Cl)cc6)c6c(sc(C)c6C)-n6c(C)nnc65)C4)ccc3o2)C(C)(C)C)cc1 [Example 344] | 95.9 | 0.01 to 0.1
